# Experimental data taken from patent US10689331B2, “IDO inhibitors” (Bristol-Myers Squibb Company, priority 2015, dated 2020).
# Target: T1, human IDO1 (Homo sapiens, UniProt P14902)
# T1 construct: expressed in transfected cells
# Assay: HEK Human IDO-1 inhibition assay (kynurenine readout, Ehrlich reagent, absorbance 490 nm)
# Assay type: cell-based
# Conditions: human IDO1/HEK293 cells, incubated 20 hours with compound; 500 nM reference standard = 100% inhibition
# How it was run: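 HEK293 cells stably expressing human IDO1, treated with compound for 20 h at 37 °C in phenol red-free RPMI/10% FBS. Kynurenine detected after TCA (0.2% final, 50 °C, 30 min) by Ehrlich reagent absorbance at 490 nm; IC50 normalised to 500 nM reference standard (100%) and DMSO (0%).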
# T1 sequence (P14902 whole entry): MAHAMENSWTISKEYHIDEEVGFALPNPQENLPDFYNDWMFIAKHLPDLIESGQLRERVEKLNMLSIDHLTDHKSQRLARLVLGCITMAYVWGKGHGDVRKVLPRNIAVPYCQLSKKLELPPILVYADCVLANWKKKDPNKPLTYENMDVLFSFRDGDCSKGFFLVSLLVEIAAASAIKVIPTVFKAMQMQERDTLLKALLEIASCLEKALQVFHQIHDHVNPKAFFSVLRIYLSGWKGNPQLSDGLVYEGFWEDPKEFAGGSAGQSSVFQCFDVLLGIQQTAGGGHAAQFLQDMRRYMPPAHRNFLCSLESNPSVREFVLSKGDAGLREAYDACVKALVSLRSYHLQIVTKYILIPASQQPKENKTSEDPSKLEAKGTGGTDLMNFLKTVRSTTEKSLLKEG
row,IC50 [nM],Compound
1,< 5,"CC(C)CN(c1ccc(OCC(=O)O)cc1NC(=O)Nc1ccc(Br)cc1F)C1CCC(F)(F)CC1 [Example 99, 2-(3-(3-(4-Bromo-2-fluorophenyl)ureido)-4-((4,4-difluorocyclohexyl)(isobutyl)amino)-phenoxy)acetic acid]"
2,≥ 100,"CCOc1ccc(NC(=O)Nc2cc(OCC(=O)O)ccc2N(CC(C)C)C2CCC(F)(F)CC2)cc1 [Example 100, 2-(4-((4,4-Difluorocyclohexyl)(isobutyl)amino)-3-(3-(4-ethoxyphenyl)ureido)phenoxy)acetic acid]"
3,< 5,"CC(C)CN(c1ncc(OCC(=O)O)cc1NC(=O)Nc1ccc(Cl)cc1F)C1CCCCC1 [Example 102, 2-((5-(3-(4-chloro-2-fluorophenyl)ureido)-6-(cyclohexyl(isobutyl)amino)pyridin-3-yl)oxy)acetic acid]"
4,< 5,"CC(C)CN(c1ncc(OCC(=O)NS(=O)(=O)C2CC2)cc1NC(=O)Nc1ccc(Cl)cc1F)C1CCCCC1 [Example 103, 2-((5-(3-(4-chloro-2-fluorophenyl)ureido)-6-(cyclohexyl(isobutyl)amino)pyridin-3-yl)oxy)-N-(cyclopropylsulfonyl)acetamide]"
5,< 5,"CC(C)CN(c1c(F)cc(OCC(=O)O)cc1NC(=O)Nc1ccc(Cl)cc1F)C1CCCCC1 [Example 104, 2-(3-(3-(4-chloro-2-fluorophenyl)ureido)-4-(cyclohexyl(isobutyl)amino)-5-fluorophenoxy)acetic acid]"
6,< 5,"CC(C)CN(c1c(F)cc(OCC(=O)NS(=O)(=O)C2CC2)cc1NC(=O)Nc1ccc(Cl)cc1F)C1CCCCC1 [Example 105, 2-(3-(3-(4-chloro-2-fluorophenyl)ureido)-4-(cyclohexyl(isobutyl)amino)-5-fluorophenoxy)-N-(cyclopropylsulfonyl)acetamide]"
7,< 5,"CC(C)CN(c1c(F)cc(OCC(=O)O)cc1NC(=O)Nc1cc(F)ccc1F)C1CCCCC1 [Example 106, 2-(4-(cyclohexyl(isobutyl)amino)-3-(3-(2,5-difluorophenyl)ureido)-5-fluorophenoxy)acetic acid]"
8,≥ 100,"CC(C)CN(c1ccc(OCC(=O)O)c(F)c1NC(=O)Nc1ccc(Cl)cc1F)C1CCCCC1 [Example 107, 2-(3-(3-(4-chloro-2-fluorophenyl)ureido)-4-(cyclohexyl(isobutyl)amino)-2-fluorophenoxy)acetic acid]"
9,< 100,"CC(C)CN(c1c(C#N)cc(OCC(=O)O)cc1NC(=O)Nc1ccc(Cl)cc1F)C1CCCCC1 [Example 108, 2-(3-(3-(4-chloro-2-fluorophenyl)ureido)-5-cyano-4-(cyclohexyl(isobutyl)amino)phenoxy)acetic acid]"
10,< 100,"Cc1ccc(NC(=O)Nc2cc(OCC(=O)O)ccc2N(CC(C)C)C2CCCCC2)cc1 [Example 109, 2-(4-(cyclohexyl(isobutyl)amino)-3-(3-(p-tolyl)ureido)phenoxy)acetic acid]"
11,< 100,"CC(C)CN(c1ccc(OCC(=O)O)cc1NC(=O)Cc1ccc(Cl)cc1F)C1CCCCC1 [Example 110, 2-(3-(2-(4-chloro-2-fluorophenyl)acetamido)-4-(cyclohexyl(isobutyl)amino)phenoxy)acetic acid]"
12,≥ 100,"Cc1cnc(NC(=O)COc2ccc(N(CC(C)C)C3CCCCC3)c(NC(=O)Nc3ccc(Cl)cc3F)c2)s1 [Example 111, 2-(3-(3-(4-chloro-2-fluorophenyl)ureido)-4-(cyclohexyl(isobutyl)amino)phenoxy)-N-(5-methylthiazol-2-yl)acetamide]"
13,≥ 100,"Cc1ccc(NC(=O)Nc2cc(OCC(=O)O)ccc2N(CC(C)C)CC(C)C)cc1 [Example 112, 2-(4-(diisobutylamino)-3-(3-(p-tolyl)ureido)phenoxy)acetic acid]"
14,< 5,"C=C(C)CN(CCCC(F)(F)F)c1cc(F)c(OCC(=O)O)cc1NC(=O)Nc1ccc(Cl)cc1F [Example 113, 2-(5-(3-(4-chloro-2-fluorophenyl)ureido)-2-fluoro-4-((2-methylallyl)(4,4,4-trifluorobutyl)amino)phenoxy)acetic acid]"
15,≥ 100,"Cc1cc(NC(=O)Nc2cc(OCC(=O)O)c(F)cc2N(CC(C)C)C2CCCCC2)on1 [Example 114, 2-(4-(cyclohexyl(isobutyl)amino)-2-fluoro-5-(3-(3-methylisoxazol-5-yl)ureido)phenoxy)acetic acid]"
16,< 5,"CC(C)CN(c1cc(F)c(OCC(=O)O)cc1NC(=O)Nc1ccc(Cl)cc1F)C1CCCCC1 [Example 115, 2-(5-(3-(4-chloro-2-fluorophenyl)ureido)-4-(cyclohexyl(isobutyl)amino)-2-fluorophenoxy)acetic acid]"
17,< 100,"COCCN(c1ccc(OCC(=O)O)cc1NC(=O)Nc1ccc(Cl)cc1F)C1CCCCC1 [Example 116, 2-(3-(3-(4-chloro-2-fluorophenyl)ureido)-4-(cyclohexyl(2-methoxyethyl)amino)phenoxy)acetic acid]"
18,≥ 100,"COCCN(c1ccc(OCC(=O)O)cc1NC(=O)Nc1ccc(F)cc1F)C1CCCCC1 [Example 117, 2-(4-(cyclohexyl(2-methoxyethyl)amino)-3-(3-(2,4-difluorophenyl)ureido)phenoxy)acetic acid]"

row,IC50 [nM],Compound
1,< 100,"O=C(O)COc1ccc(N(CC2CC2)C2CCCCC2)c(NC(=O)Nc2ccc(Cl)cc2F)c1 [Example 118, 2-(3-(3-(4-chloro-2-fluorophenyl)ureido)-4-(cyclohexyl(cyclopropylmethyl)amino)phenoxy)acetic acid]"
2,< 100,"CC(C)CN(c1cc(Cl)c(OCC(=O)O)cc1NC(=O)Nc1ccc(Cl)cc1F)C1CCCCC1 [Example 119, 2-(2-chloro-5-(3-(4-chloro-2-fluorophenyl)ureido)-4-(cyclohexyl(isobutyl)amino)phenoxy)acetic acid]"
3,< 100,C=C(C)CN(CCCC(F)(F)F)c1cc(F)c(OCC(=O)O)cc1NC(=O)Nc1ccc(C)cc1 [Example 120]
4,< 100,"C=C(C)CN(CCCC(F)(F)F)c1cc(F)c(OCC(=O)O)cc1NC(=O)Nc1cc(C)no1 [Example 121, 2-(2-fluoro-4-((2-methylallyl)(4,4,4-trifluorobutyl)amino)-5-(3-(3-methylisoxazol-5-yl)ureido)phenoxy)acetic acid]"
5,≥ 100,"Cc1ccc(NC(=O)Nc2cc(OCC(=O)O)c(Cl)cc2N(CC(C)C)C2CCCCC2)cc1 [Example 122, 2-(2-chloro-4-(cyclohexyl(isobutyl)amino)-5-(3-(p-tolyl)ureido)phenoxy)acetic acid]"
6,≥ 100,"CC(C)CN(c1cc(F)c(OCC(=O)O)cc1NC(=O)Nc1ccccc1Cl)C1CCCCC1 [Example 123, 2-(5-(3-(2-chlorophenyl)ureido)-4-(cyclohexyl(isobutyl)amino)-2-fluorophenoxy)acetic acid]"
7,< 100,"CC(C)CN(c1cc(F)c(OCC(=O)O)cc1NC(=O)Nc1ccc(F)cc1F)C1CCCCC1 [Example 124, 2-(4-(cyclohexyl(isobutyl)amino)-5-(3-(2,4-difluorophenyl)ureido)-2-fluorophenoxy)acetic acid]"
8,< 5,"CC(C)CN(c1cc(F)c(OCC(=O)O)cc1NC(=O)Nc1ccc(Br)cc1F)C1CCCCC1 [Example 125, 2-(5-(3-(4-bromo-2-fluorophenyl)ureido)-4-(cyclohexyl(isobutyl)amino)-2-fluorophenoxy)acetic acid]"
9,< 5,"CC(C)CN(c1cc(F)c(OCC(=O)O)cc1NC(=O)Nc1cc(F)ccc1F)C1CCCCC1 [Example 126, 2-(4-(cyclohexyl(isobutyl)amino)-5-(3-(2,5-difluorophenyl)ureido)-2-fluorophenoxy)acetic acid]"
10,< 100,"CC(C)CN(c1cc(F)c(OCC(=O)O)cc1NC(=O)Nc1ccc(OC(F)(F)F)cc1)C1CCCCC1 [Example 127, 2-(4-(cyclohexyl(isobutyl)amino)-2-fluoro-5-(3-(4-(trifluoromethoxy)phenyl)ureido)phenoxy)acetic acid]"
11,≥ 100,"CC(C)CN(c1cc(F)c(OCC(=O)O)cc1NC(=O)Nc1ccc(C#N)nc1)C1CCCCC1 [Example 128, 2-(5-(3-(6-cyanopyridin-3-yl)ureido)-4-(cyclohexyl(isobutyl)amino)-2-fluorophenoxy)acetic acid]"
12,< 100,CC(C)CN(c1cc(F)c(OCC(=O)O)cc1NC(=O)Nc1ccccc1F)C1CCCCC1 [Example 129]
13,< 100,O=C(O)COc1ccc(N(CC2CC2)C2CCCCC2)c(NC(=O)Nc2cc(F)ccc2F)c1 [Example 130]
14,≥ 100,"Cc1ccc(NC(=O)Nc2cc(OCC(=O)O)ccc2N(CC2CC2)C2CCCCC2)cc1 [Example 131, 2-(4-(cyclohexyl(cyclopropylmethyl)amino)-3-(3-(p-tolyl)ureido)phenoxy)acetic acid]"
15,< 100,"CC(C)CN(c1cc(F)c(OCC(=O)O)cc1NC(=O)Cc1ccc(Cl)cc1F)C1CCCCC1 [Example 133, 2-(5-(2-(4-chloro-2-fluorophenyl)acetamido)-4-(cyclohexyl(isobutyl)amino)-2-fluorophenoxy)acetic acid]"
16,≥ 100,"CC(C)CN(c1ccc(OCC(=O)NCC(F)(F)F)cc1NC(=O)Nc1ccc(Cl)cc1F)C1CCCCC1 [Example 135, 2-(3-(3-(4-chloro-2-fluorophenyl)ureido)-4-(cyclohexyl(isobutyl)amino)phenoxy)-N-(2,2,2-trifluoroethyl)acetamide]"
17,< 100,"C=C(C)CN(c1ccc(OCC(=O)O)cc1NC(=O)Nc1ccc(Cl)cc1F)C1CCOCC1 [Example 137, 2-(3-(3-(4-chloro-2-fluorophenyl)ureido)-4-((2-methylallyl)(tetrahydro-2H-pyran-4-yl)amino)phenoxy)acetic acid]"
18,< 100,"C=C(C)CN(c1ccc(OC(C)C(=O)O)cc1NC(=O)Nc1ccc(Cl)cc1F)C1CCOCC1 (stereo not drawn) [Example 138, 2-(3-(3-(4-chloro-2-fluorophenyl)ureido)-4-((2-methylallyl)(tetrahydro-2H-pyran-4-yl)amino)phenoxy)propanoic acid]"
